Like-named read-outs stand apart in the source and are kept apart here. Residues, ends and D or L forms follow the SMILES beside them.
Key:
NIH/Swiss mice = experiment: acute food intake assay, lean overnight-fasted NIH/Swiss mice, intraperitoneal injection; type: in vivo, mouse; conditions: for Food Intake Inhibition: mouse assay, dose of 200 mg/kg, measured at 60 minutes; for FI (60′, 200): food intake, % change relative to control, 60 min
Method: The effect of NMX Peptides, FNX Peptides or NMX Receptor agonists on food intake when systemically administered was investigated using an acute food intake assay. This assay measured food consumption in lean subjects. Lean, group-housed, overnight-fasted NIH/Swiss mice. All in vivo tests were performed with peripheral injections of peptide. […] The dose-response data are presented herein. The protocol is described below. Female NIH/Swiss mice (8-24 weeks old) were group housed with a 12:12 hour light:dark cycle, with lights on at 0300. Water and a standard pelleted mouse chow diet are available ad libitum, except as noted. Animals are fasted starting at approximately 1530 hrs, 1 day prior to experiment. At time=0 min, all animals are given an intraperitoneal injection of vehicle or polypeptide in a volume of 200 uL/mouse and immediately given a pre-weighed amount (10-15 g) of the standard chow. Food is removed and weighed at 30, 60, and 120 minutes to determine the amount of food consumed. The effects of treatment on food intake are expressed as % change relative to control.

[1] = brush border membrane (BBM) stability assay; type: in vitro ADME, human; conditions: brush border membrane extract (e.g. kidney)
Method: Some exemplary NMX Peptides and FNX Peptides were tested for stability in a brush border membrane (BBM) assay as described herein. To determine the enzymatic stability of peptide hormones peptides are incubated with a preparation of human brush border membranes extract (e.g., kidney), and the stability of the peptide is determined by measuring concentration of the intact peptide at specific intervals. The brush border membrane extract contains dipeptidyl peptidase IV (DPP-IV), neutral endopeptidases, peptidyl-dipeptidase A, carboxypeptidases and aminopeptidases. These are the primary enzymes that degrade peptides in vivo and are found in the kidneys, liver, lungs and pancreas. Resistance against these human proteases would increase peptide half-life. In the BBM assay test peptide was subjected to digestion over a period of five (5) hours with human brush border membrane extracts, e.g. kidney, at 37° C. At desired timepoints digestion was stopped by addition of quench solution, typically 50% ACN, 1% FA. After centrifugation to remove membrane debris, supernatant was subjected to mass spectrometry using a selected ion scan for the intact molecule of interest. Values are expressed as a percent of stable. A value of at least 80 or greater is regarded as an extremely stable molecule. A value of at least 70 or greater is a molecule with significant stability.

[2] = percent compound remaining after a 5 hour incubation, human brush border membrane assay, read-out: hBBM

SMILES | Food Intake Inhibition (NIH/Swiss mice) | remaining at 5 h [1, 2] | activity in food intake assays (NIH/Swiss mice; doses up to 170 nmol/kg) | FI (60′, 200) (NIH/Swiss mice) | remaining at 5 h ([1]; percent of stable, human brush border membrane extracts, five hours, 37° C., read-out: BBM)
CC(C)C[C@H](NC(=O)[C@H](CCCCN)NC(=O)[C@H](CCC(N)=O)NC(=O)[C@@H](NC(=O)[C@H](CCCCN)NC(=O)[C@H](CO)NC(=O)[C@H](Cc1ccc(O)cc1)NC(=O)[C@H](Cc1c[nH]cn1)NC(=O)[C@H](Cc1ccccc1)NC(=O)[C@H](CC(C)C)NC(=O)[C@@H](N)Cc1ccccc1)[C@@H](C)O)C(=O)NCC(=O)N[C@@H](CCCCN)C(=O)N[C@@H](CO)C(=O)N[C@@H](CC(N)=O)C(=O)N[C@H](C(=O)N[C@H](C(=O)N[C@@H](CCC(=O)O)C(=O)N[C@@H](CCC(=O)O)C(=O)N[C@@H](CC(C)C)C(=O)N[C@@H](CCC(N)=O)C(=O)N[C@@H](CO)C(=O)N1CCC[C@H]1C(=O)N[C@@H](CO)C(=O)N[C@@H](CCCNC(=N)N)C(=O)NCC(=O)N[C@@H](Cc1ccc(O)cc1)C(=O)N[C@@H](Cc1ccccc1)C(=O)N[C@@H](CC(C)C)C(=O)N[C@@H](Cc1ccccc1)C(=O)N[C@@H](CCCNC(=N)N)C(=O)N1CCC[C@H]1C(=O)N[C@@H](CCCNC(=N)N)C(=O)N[C@@H](CC(N)=O)C(N)=O)C(C)C)C(C)C [Des-(Phe24,Ala25,Ser26,Gln27)-FN38] (H-FLFHYSKTQKLGKSNVVEELQSPSRGYFLFRPRN-NH2; N-terminus assumed) | −83% | 61% | – | – | –
CC(C)C[C@H](NC(=O)[C@H](CCCCN)NC(=O)[C@H](CCC(N)=O)NC(=O)[C@@H](NC(=O)[C@H](CCCCN)NC(=O)[C@H](CO)NC(=O)[C@H](Cc1ccc(O)cc1)NC(=O)[C@H](Cc1c[nH]cn1)NC(=O)[C@H](Cc1ccccc1)NC(=O)[C@H](CC(C)C)NC(=O)[C@@H](N)Cc1ccccc1)[C@@H](C)O)C(=O)NCC(=O)N[C@@H](CCCCN)C(=O)N[C@@H](CO)C(=O)N[C@@H](CC(N)=O)C(=O)N[C@H](C(=O)N[C@H](C(=O)N[C@@H](CCC(=O)O)C(=O)N[C@@H](CCC(=O)O)C(=O)N[C@@H](CC(C)C)C(=O)N[C@@H](CCC(N)=O)C(=O)N[C@@H](CO)C(=O)N1CCC[C@H]1C(=O)N[C@@H](Cc1ccccc1)C(=O)N[C@@H](C)C(=O)N[C@@H](CO)C(=O)N[C@@H](CCC(N)=O)C(=O)N[C@@H](CO)C(=O)N[C@@H](CCCNC(=N)N)C(=O)NCC(=O)N[C@@H](Cc1ccc(O)cc1)C(=O)N[C@@H](Cc1ccccc1)C(=O)N[C@H](C(=O)N[C@@H](Cc1ccccc1)C(=O)N[C@@H](CCCNC(=N)N)C(=O)N1CCC[C@H]1C(=O)N[C@@H](CCCNC(=N)N)C(=O)N[C@@H](CC(N)=O)C(N)=O)C(C)C)C(C)C)C(C)C [[Val33]FN38] (H-FLFHYSKTQKLGKSNVVEELQSPFASQSRGYFVFRPRN-NH2; N-terminus and C-terminus assumed) | – | 82% | – | – | –
CC(C)C[C@H](NC(=O)[C@H](Cc1ccccc1)NC(=O)[C@H](Cc1ccc(O)cc1)NC(=O)CN)C(=O)N[C@@H](Cc1ccccc1)C(=O)N[C@@H](CCCNC(=N)N)C(=O)N1CCC[C@H]1C(=O)N[C@@H](CCCNC(=N)N)C(=O)N[C@@H](CC(N)=O)C(N)=O [Compound 163357, reference compound] (H-GYFLFRPRN-NH2; N-terminus assumed) | – | – | inactive | 26% | –
CC(C)C[C@H](NC(=O)[C@H](CCCCN)NC(=O)[C@H](CCC(N)=O)NC(=O)[C@@H](NC(=O)[C@H](CCCCN)NC(=O)[C@H](CO)NC(=O)[C@H](Cc1ccc(O)cc1)NC(=O)[C@H](Cc1c[nH]cn1)NC(=O)[C@H](Cc1ccccc1)NC(=O)[C@H](CC(C)C)NC(=O)[C@@H](N)Cc1ccccc1)[C@@H](C)O)C(=O)NCC(=O)N[C@@H](CCCCN)C(=O)N[C@@H](CO)C(=O)N[C@@H](CC(N)=O)C(=O)N[C@H](C(=O)N[C@H](C(=O)N[C@@H](CCC(=O)O)C(=O)N[C@@H](CCC(=O)O)C(=O)N[C@@H](CC(C)C)C(=O)N[C@@H](CCC(N)=O)C(=O)N[C@@H](CO)C(=O)N1CCC[C@H]1C(=O)N[C@@H](Cc1ccccc1)C(=O)N[C@@H](C)C(=O)N[C@@H](CO)C(=O)N[C@@H](CCC(N)=O)C(=O)N[C@@H](CO)C(=O)N[C@@H](CCCNC(=N)N)C(=O)NCC(N)=O)C(C)C)C(C)C [Compound 165062] (H-FLFHYSKTQKLGKSNVVEELQSPFASQSRG-NH2; N-terminus assumed) | – | – | – | 0% | 40%
CC(C)C[C@H](NC(=O)[C@H](CCC(=O)O)NC(=O)[C@H](CCC(=O)O)NC(=O)[C@@H](NC(=O)[C@@H](NC(=O)[C@H](CC(N)=O)NC(=O)[C@H](CO)NC(=O)[C@H](CCCCN)NC(=O)CNC(=O)[C@H](CC(C)C)NC(=O)[C@@H](N)CCCCN)C(C)C)C(C)C)C(=O)N[C@@H](CCC(N)=O)C(=O)N[C@@H](CO)C(=O)N1CCC[C@H]1C(=O)N[C@@H](Cc1ccccc1)C(=O)N[C@@H](C)C(=O)N[C@@H](CO)C(=O)N[C@@H](CCC(N)=O)C(=O)N[C@@H](CO)C(=O)N[C@@H](CCCNC(=N)N)C(=O)NCC(=O)N[C@@H](Cc1ccc(O)cc1)C(=O)N[C@@H](Cc1ccccc1)C(=O)N[C@@H](CC(C)C)C(=O)N[C@@H](Cc1ccccc1)C(=O)N[C@@H](CCCNC(=N)N)C(=O)N1CCC[C@H]1C(=O)N[C@@H](CCCNC(=N)N)C(=O)N[C@@H](CC(N)=O)C(N)=O [Des-(Phe1-Gln9)FN38] (H-KLGKSNVVEELQSPFASQSRGYFLFRPRN-NH2; N-terminus assumed) | −70% | 55% | – | – | –
CC(C)C[C@H](NC(=O)[C@H](CCCCN)NC(=O)[C@H](CCC(N)=O)NC(=O)[C@@H](NC(=O)[C@H](CCCCN)NC(=O)[C@H](CO)NC(=O)[C@H](Cc1ccc(O)cc1)NC(=O)[C@H](Cc1c[nH]cn1)NC(=O)[C@H](Cc1ccccc1)NC(=O)[C@H](CC(C)C)NC(=O)[C@@H](N)Cc1ccccc1)[C@@H](C)O)C(=O)NCC(=O)N[C@@H](CCCCN)C(=O)N[C@@H](CO)C(=O)N[C@@H](CC(N)=O)C(=O)N[C@H](C(=O)N[C@H](C(=O)N[C@@H](CCC(=O)O)C(=O)N[C@@H](CCC(=O)O)C(=O)N[C@@H](CC(C)C)C(=O)N[C@@H](CCC(N)=O)C(=O)N[C@@H](CO)C(=O)N1CCC[C@H]1C(=O)N[C@@H](Cc1ccccc1)C(=O)N[C@@H](C)C(=O)N[C@@H](CO)C(=O)N[C@@H](CCC(N)=O)C(=O)N[C@@H](CO)C(=O)N[C@@H](CCCNC(=N)N)C(=O)NCC(=O)N[C@@H](Cc1ccccc1)C(=O)N[C@@H](Cc1ccccc1)C(=O)N[C@@H](CC(C)C)C(=O)N[C@@H](Cc1ccccc1)C(=O)N[C@@H](CCCNC(=N)N)C(=O)N1CCC[C@H]1C(=O)N[C@@H](CCCNC(=N)N)C(=O)N[C@@H](CC(N)=O)C(N)=O)C(C)C)C(C)C [(Phe31]FN38] (H-FLFHYSKTQKLGKSNVVEELQSPFASQSRGFFLFRPRN-NH2; N-terminus assumed) | −64% | 81% | – | – | –
CC(C)C[C@H](NC(=O)[C@H](CCCCN)NC(=O)[C@H](CCC(N)=O)NC(=O)[C@@H](NC(=O)[C@H](CCCCN)NC(=O)[C@H](CO)NC(=O)[C@H](Cc1ccc(O)cc1)NC(=O)[C@H](Cc1c[nH]cn1)NC(=O)[C@H](Cc1ccccc1)NC(=O)[C@H](CC(C)C)NC(=O)[C@@H](N)Cc1ccccc1)[C@@H](C)O)C(=O)NCC(=O)N[C@@H](CCCCN)C(=O)N[C@@H](CO)C(=O)N[C@@H](CC(N)=O)C(=O)N[C@@H](CCC(=O)O)C(=O)N[C@@H](CCC(=O)O)C(=O)N[C@@H](CC(C)C)C(=O)N[C@@H](CCC(N)=O)C(=O)N[C@@H](CO)C(=O)N1CCC[C@H]1C(=O)N[C@@H](CO)C(=O)N[C@@H](CCCNC(=N)N)C(=O)NCC(=O)N[C@@H](Cc1ccc(O)cc1)C(=O)N[C@@H](Cc1ccccc1)C(=O)N[C@@H](CC(C)C)C(=O)N[C@@H](Cc1ccccc1)C(=O)N[C@@H](CCCNC(=N)N)C(=O)N1CCC[C@H]1C(=O)N[C@@H](CCCNC(=N)N)C(=O)N[C@@H](CC(N)=O)C(N)=O (H-FLFHYSKTQKLGKSNEELQSPSRGYFLFRPRN-NH2; N-terminus assumed) | −79% | 77% | – | – | –
CC(C)C[C@H](NC(=O)[C@H](Cc1ccccc1)NC(=O)[C@H](Cc1ccc(O)cc1)NC(=O)CNC(=O)[C@H](CO)NC(=O)[C@H](Cc1ccc(O)cc1)NC(=O)[C@H](Cc1c[nH]cn1)NC(=O)[C@H](Cc1ccccc1)NC(=O)[C@H](CC(C)C)NC(=O)[C@@H](N)Cc1ccccc1)C(=O)N[C@@H](Cc1ccccc1)C(=O)N[C@@H](CCCNC(=N)N)C(=O)N1CCC[C@H]1C(=O)N[C@@H](CCCNC(=N)N)C(=O)N[C@@H](CC(N)=O)C(N)=O [Des-(Lys7-Gly30)FN38 or FN15] (H-FLFHYSGYFLFRPRN-NH2; N-terminus and C-terminus assumed) | – | 49% | – | – | –

— US20090209460A1, “COMPOSITIONS AND METHODS FOR TREATING OBESITY AND RELATED METABOLIC DISORDERS” (Amylin Pharmaceuticals, Inc., priority 2005, published 2009)
